Results: article PMC9697187 (Viruses, 2022)
Where two headings read alike, the source gives them in different places.

What was measured:
[1] = system: FIPV serotype I (Black I); assay: Colorimetric CPE bioassay; assay type: cell-based, feline infectious peritonitis virus (FIPV); conditions: for EC50: read-out: EC50 against Black I (serotype I FIPV)
[2] = system: FIPV serotype II (WSU-79-1146); assay: Combined anticoronaviral therapy; assay type: cell-based, feline infectious peritonitis virus (FIPV); conditions: WSU-79-1146, CRFK cells, alone and combined determined concurrently
[3] = system: FIPV II; conditions: cited from earlier work
[4] = system: FIPV serotype II (WSU-79-1146); assay: Colorimetric CPE bioassay; assay type: cell-based, feline infectious peritonitis virus (FIPV); conditions: for EC50: read-out: EC50 against WSU-79-1146 (serotype II FIPV)
[5] = Single dose pharmacokinetics of orally administered MPV in SPF cats; assay type: in vivo, cat
[6] = system: CEM/C1 human cell line; conditions: cited from earlier work
[7] = system: CRFK cells; conditions: cited from earlier work
[8] = in vivo; set-up: species or system cat; conditions: male; for Cmax: Cmax of GS-441524
[9] = system: feline infectious peritonitis (FIP); conditions: cited from earlier work; for Cats clinically cured of FIP: retrospective study, treated with either GC376 or GS-441524
[10] = set-up: method as in not printed at the place; conditions: read-out: Cmax of GS-441524; subcutaneously administered at 5 mg/kg, cats; ref not given; cited from earlier work
[11] = FCWF-4 CU cells, MOI 0.1, 72 h, monotherapy
[12] = Alphacoronavirus 1, CRFK cells, MOI 0.1, 72 h, monotherapy
[13] = Alphacoronavirus 1, read-out: EC50, combination experiment (A) nirmatrelvir and MPV
[14] = Alphacoronavirus 1, read-out: EC50, combination experiment (C) remdesivir and nirmatrelvir
[15] = Alphacoronavirus 1, FCWF-4 CU cells, MOI 0.1, 72 h, monotherapy
[16] = clinical trial, naturally occurring FIP
[17] = owner survey, unlicensed GS-441524
[18] = male, serum, po, 10 mg/kg, 10 mg/kg oral molnupiravir, mean of 3 cats
[19] = serum MPV, 10 mg/kg oral molnupiravir, mean of 3 cats, 10 mg/kg

CC(C)C[C@H](NC(=O)OCc1ccccc1)C(=O)N[C@@H](CC1CCNC1=O)C(O)S(=O)(=O)O (stereo partly shown) [GC376]
EC50 [1, 11]: 10 nM | EC50 ([2]; read-out: EC50, combination experiment (B) GC376 and remdesivir): 406 nM | EC50 ([3]; prior study, read-out: EC50 against FIPV II): 900 nM

O=c1nc(NO)ccn1[C@@H]1O[C@H](CO)[C@@H](O)[C@H]1O [NHC, β-D-N^4-hydroxycytidine]
EC50 [1, 11]: 50 nM | EC50 against Black I expressed as ([1]; equivalent of 0.05 μM): 0.0129 µg/mL | EC50 ([4]; CRFK cells, MOI 0.1, 72 h, monotherapy): 110 nM | Serum exposure relative to the NHC EC50 ([5]; in vivo): greater than the NHC EC50 | Kel of NHC ([5]; in vivo, po, 10 mg/kg): 0.2 h⁻¹ | CC50 [6]: 7500 nM | Cytotoxicity in CRFK cells [7]: cytotoxicity has also been documented

CC(C)(C)[C@H](NC(=O)C(F)(F)F)C(=O)N1C[C@H]2[C@@H]([C@H]1C(=O)N[C@H](C#N)C[C@@H]1CCNC1=O)C2(C)C [nirmatrelvir]
EC50 ([1]; Alphacoronavirus 1, 72 h): 16 nM | EC50 [4, 12]: 1310 nM | Differential efficacy, EC50 for FIPV I relative to FIPV II ([4]; Black I vs WSU-79-1146): ~100 fold | EC50 [2, 13]: 1310 nM | EC50 [2, 14]: 2940 nM

N#C[C@@]1(c2ccc3c(N)ncnn23)O[C@H](CO)[C@@H](O)[C@H]1O [GS-441524]
EC50 [1, 15]: 20 nM | EC50 ([4]; Alphacoronavirus 1, CRFK, 72 h): 610 nM | concentration at 24 h ([8]; cat, GS-441524 remaining in plasma 24 h post-treatment): 0.22 to 2 µM | AUC(0-t) ([8]; iv, 7 mg/kg, AUC0-24 of GS-441524): 45 µM·h | Cmax ([8]; iv, 7 mg/kg): 6.9 µM | AUC(0-t) ([8]; po, 25 mg/kg, AUC (AUC0-24) of GS-441524): 89700 ng·h/mL | Cmax ([8]; po, 25 mg/kg): 13300 ng/mL | half-life ([8]; po, 25 mg/kg, T1/2 of GS-441524): 4.5 h | Cats healthy and disease free at the time of publication [9, 16]: 25 of 31 | Cats with successful resolution of disease ([9]; neurological FIP, escalating dose): 3 of 4 | Cats with neurological or ocular signs successfully treated ([9]; owner survey responses): 161 of 169 | Cats alive at the time of publication ([9]; owner survey, unlicensed GS-441524, n = 380): 96.7% | Cats considered cured [9, 17]: 54.0% | Cats still being monitored in the 12-week observation period [9, 17]: 43.3% | Cats clinically cured of FIP [9]: 29 of 30 | EC50 ([3]; previously reported, read-out: EC50 against serotype II FIPV): 780 nM | Cmax [10]: ~10 µM

CC(C)C(=O)OC[C@H]1O[C@@H](n2ccc(NO)nc2=O)[C@H](O)[C@@H]1O [MPV, molnupiravir]
EC50 [1, 15]: 16 nM | EC50 ([4]; Alphacoronavirus 1, CRFK, 72 h): 700 nM | EC50 [2, 13]: 693 nM | Detection of MPV in serum over 24 h ([5]; 10 mg/kg oral MPV): not detected after the 12-h time point | Peak detection time point in serum, aggregate of three cats ([5]; 10 mg/kg oral MPV, Figure 3B): approximately 1.5 h | CL/F [5, 18]: 347 L/h/kg | MRT [5, 18]: 4.6 h | AUC(0-t) ([5]; male, serum, po, 10 mg/kg, 10 mg/kg oral molnupiravir, mean of 3 cats, read-out: AUC0-t of MPV): 0.085 µM·h | Vd/F ([5]; male, serum, po, 10 mg/kg, 10 mg/kg oral molnupiravir, mean of 3 cats, read-out: Vz/F of MPV): 881 L/kg | AUC ([5]; male, serum, po, 10 mg/kg, serum MPV, 10 mg/kg oral molnupiravir, individual cat): 39.6 ng·h/mL | AUC(0-t) ([5]; male, serum, po, 10 mg/kg, serum MPV, 10 mg/kg oral molnupiravir, mean of 3 cats, read-out: AUC (AUC0-t) of MPV): 27.5 ng·h/mL | AUC (AUC0-t) of MPV [5, 19]: 27.5 ng·h/mL | Cmax [5, 19]: 0.04 µM | Cmax of MPV [5, 19]: 14.2 ng/mL

CCC(CC)COC(=O)[C@H](C)N[P@](=O)(OC[C@H]1O[C@@](C#N)(c2ccc3c(N)ncnn23)[C@H](O)[C@@H]1O)Oc1ccccc1 [RDV, remdesivir]
EC50 [1, 15]: 30 nM | EC50 [4, 12]: 180 nM | EC50 ([2]; Alphacoronavirus 1, read-out: EC50, combination experiment (B) GC376 and remdesivir): 181 nM | EC50 [2, 14]: 6420 nM

CC(C)C[C@H](NC(=O)OCc1ccccc1)C(=O)N[C@@H](C[C@@H]1CCNC1=O)C(O)S(=O)(=O)[O-].[Na+] (stereo partly shown) [GC376]
Cats in remission [9, 16]: seven of the 20 | Cats clinically cured of FIP [9]: 29 of 30
